Assays:
SSTR5 [1] = target: T1, SSTR5 (Homo sapiens, UniProt P35346); experiment: SSTR5 receptor-ligand binding assay, CHO-K1 cell membranes, 125I-SRIF radioligand; design: expressed in transfected cells; settings: Table 4, read-out: Bnd IC50
Description: The receptor-ligand binding assays of all 5 subtype of SSTRs were performed with membranes isolated from Chinese hamster ovary (CHO)-K1 cells stably expressing the cloned human somatostatin receptors in 96-well format as previous reported. (Yang et al. PNAS 95:10836-10841, (1998), Birzin et al. Anal. Biochem. 307:159-166, (2002)).
The stable cell lines for SSTR1-SSTR5 were developed by stably transfecting with DNA for all five SSTRs using Lipofectamine. Neomycin-resistant clones were selected and maintained in medium containing 400 μg/mL G418 (Rohrer et al. Science 282:737-740, (1998)). Binding assays were performed using (3-125I-Tyr11)-SRIF-14 or (3-125I-Tyrl 1)-SRIF-28 as the radioligand (used at 0.1 nM) and The Packard Unifilter assay plate. The assay buffer consisted of 50 mM TrisHCl (pH 7.8) with 1 mM EGTA, 5 mM MgCl2, leupeptin (10 μg/mL), pepstatin (10 μg/mL), bacitracin (200 μg/mL), and aprotinin (0.5 μg/mL). CHO-K1 cell membranes, radiolabeled somatostatin, and unlabeled test compounds were resuspended or diluted in this assay buffer. Unlabeled test compounds were examined over a range of concentrations from 0.01 nM to 10,000 nM. The Ki values for compounds were determined as described by Cheng and Prusoff Biochem Pharmacol. 22:3099-3108 (1973).

SSTR5 [2] = target: T1, SSTR5; experiment: Functional assay of inhibition of SSTR5 mediated cyclic AMP production in SSTR5 expressing CHO cells; format: cell-based, human; settings: forskolin (FSK) plus SS-28, read-out: cAMP IC50

T1 sequence (P35346 whole entry): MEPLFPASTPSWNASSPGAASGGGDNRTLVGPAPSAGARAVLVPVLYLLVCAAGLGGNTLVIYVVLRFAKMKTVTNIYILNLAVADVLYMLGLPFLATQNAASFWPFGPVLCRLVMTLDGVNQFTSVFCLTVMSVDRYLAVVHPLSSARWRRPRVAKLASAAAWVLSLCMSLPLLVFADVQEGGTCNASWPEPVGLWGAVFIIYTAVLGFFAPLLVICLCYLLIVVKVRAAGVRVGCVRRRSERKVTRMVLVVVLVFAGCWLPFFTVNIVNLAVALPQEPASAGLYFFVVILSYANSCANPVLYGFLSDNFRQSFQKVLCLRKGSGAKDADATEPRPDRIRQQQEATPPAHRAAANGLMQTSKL

| IC50 (SSTR5 [1]) [nM] | IC50 (SSTR5 [2]) [nM] | SMILES |
| --- | --- | --- |
| 2.9 | 2.9 | CC(C)Oc1ccc(-c2ccc(F)c(F)c2)c(CN2CCC3(CC2)CC(c2ccc(C(=O)O)cc2)=NO3)c1 [Example 13, 4-(8-{[3′,4′-Difluoro-4-(propan-2-yloxy)biphenyl-2-yl]methyl}-1-oxa-2,8-diazaspiro[4.5]dec-2-en-3-yl)benzoic acid] |
| 12 | 11 | CCOc1cc(CN2CCC3(CC2)CC(c2ccc(C(=O)O)cc2)=NO3)ccc1-c1nccs1 [Example 18, 4-{8-[3-Ethoxy-4-(1,3-thiazol-2-yl)benzyl]-1-oxa-2,8-diazaspiro[4.5]dec-2-en-3-yl}benzoic acid] |
| 1.2 | 2.6 | CCOc1cc(CN2CCC3(CC2)CC(c2ccc(C(=O)O)cn2)=NO3)cc(OCC)c1-c1ccc(F)cc1 [Example 25, 6-{8-[(2,6-Diethoxy-4′-fluorobiphenyl-4-yl)methyl]-1-oxa-2,8-diazaspiro[4.5]dec-2-en-3-yl}pyridine-3-carboxylic acid] |
| 0.33 | 0.32 | CCOc1cc(CN2CCC3(CC2)CC(c2ccc(C(=O)O)cc2)=NO3)c(-c2ccc(F)nc2)cc1C [Example 26, 4-{8-[5-Ethoxy-2-(6-fluoropyridin-3-yl)-4-methylbenzyl]-1-oxa-2,8-diazaspiro[4.5]dec-2-en-3-yl}benzoic acid] |
| 0.99 | 5.6 | CCOc1cc(CN2CCC3(CC2)CC(c2ccc(C(=O)O)cn2)=NO3)c(-c2ccc(F)c(F)c2F)cc1C [Example 29, 6-{8-[(4-Ethoxy-2′,3′,4′-trifluoro-5-methylbiphenyl-2-yl)methyl]-1-oxa-2,8-diazaspiro[4.5]dec-2-en-3-yl}pyridine-3-carboxylic acid] |

Further lines, the compound ahead of its results:

| SMILES | IC50 (SSTR5 [1]) [nM] | IC50 (SSTR5 [2]) [nM] |
| --- | --- | --- |
| CCOc1cc(CN2CCC3(CC2)CC(c2ccc(C(=O)O)cc2)=NO3)ccc1Cl [Example 12, 4-[8-(4-Chloro-3-ethoxybenzyl)-1-oxa-2,8-diazaspiro[4.5]dec-2-en-3-yl]benzoic acid] | 7.5 | 1.3 |
| CCOc1cc(CN2CCC3(CC2)CC(c2ccc(C(=O)O)cc2)=NO3)c(-c2nccs2)cc1C [Example 19, 4-{8-[5-Ethoxy-4-methyl-2-(1,3-thiazol-2-yl)benzyl]-1-oxa-2,8-diazaspiro[4.5]dec-2-en-3-yl}benzoic acid] | 1.5 | 0.94 |
| CC(C)(C)n1cc(CN2CCC3(CC2)CC(c2ccc(C(=O)O)cc2)=NO3)c(-c2ccc(F)c(Cl)c2)n1 [Example 24] | 2.3 | 1.8 |
| CC(C)(C)n1cc(CN2CCC3(CC2)CC(c2ccc(C(=O)O)cn2)=NO3)c(-c2ccc(F)c(Cl)c2)n1 [Example 27, 6-(8-{(1-tert-Butyl-3-(3-chloro-4-fluorophenyl)-1H-pyrazol-4-yl]methyl}-1-oxa-2,8-diazaspiro[4.5]dec-2-en-3-yl)pyridine-3-carboxylic acid] | 10 | 8.8 |
| CCOc1ccc(-c2ccc(F)c(F)c2F)c(CN2CCC3(CC2)CC(c2ccc(C(=O)O)cn2)=NO3)c1 [Example 30, 6-{8-[(4-Ethoxy-2′,3′,4′-trifluorobiphenyl-2-yl)methyl]-1-oxa-2,8-diazaspiro[4.5]dec-2-en-3-yl}pyridine-3-carboxylic acid] | 0.41 | 0.76 |

Reference: patent US20130040978A1 (priority 2010, published 2013)
